Results reported in publication PMC9930359, “Cytotoxicity of the methanol extracts and compounds of Brucea antidysenterica (Simaroubaceae) towards multifactorial drug-resistant human cancer cell lines” (BMC Complementary Medicine and Therapies, 2023).

Columns and labels:
[1] = test system: CCRF-CEM leukemia cells; test: Resazurin reduction assay (RRA), cytotoxicity; assay type: cell-based; conditions: Homo sapiens, 72 h
From the text: (§2) In this work, 9 cancer cell lines with various drug resistance patterns as well as AML12 hepatocytes as normal control cell line were used. […] The AML12 hepatocytes were used for the comparison of the activities of the samples with HepG2 [40]. […] The RPMI-1640 medium was used for the culture of CCRF-CEM and CEM/ADR5000 cells whilst DMEM medium was used for carcinoma cells. The culture media were supplemented (complete medium) with 10% fetal bovine serum and 1% penicillin/streptomycin (Invitrogen, Eggenstein, Germany). […] To maintain the resistance phenotype of the resistant carcinoma cell lines such as MDA-MB-231/BCRP and HCT116 p53^−/−, and U87MG.ΔEGFR cells, the complete DMEM medium containing geneticin at 800 ng/ml and 400 µg/ml, respectively were used [41, 42].
(§3) Cells were cultured in a standard condition consisted of a humidified 5% CO2 atmosphere and an incubation temperature of 37 °C. The tested concentration ranges were 0.63—80 µg/mL for the botanicals and 0.78—100 µM for phytochemicals. The incubation time of the treated cells was 72 h, and the fluorescence was measured with Infinite M2000 Pro™ plate reader (Tecan, Crailsheim, Germany). The wavelengths used were 544 nm for the excitation and 590 nm for the emission. […] The degree of resistance (D.R.) was set as the ratio of the IC50 values of samples in the resistant cell line vs that of corresponding sensitive cell line. The selectivity index (S.I.) was the ratio of the IC50 value of AML12 hepatocytes vs. that of HepG2 cells [13, 48].

[2] = test system: CEM/ADR5000 cells; test: Resazurin reduction assay (RRA), cytotoxicity; assay type: cell-based, human; conditions: for IC50: Homo sapiens, CEM/ADR5000, 72 h; for Degree of resistance (D.R.): ratio of IC50 CEM/ADR5000 vs CCRF-CEM
Method: (§4) The RPMI-1640 medium was used for the culture of CCRF-CEM and CEM/ADR5000 cells whilst DMEM medium was used for carcinoma cells. The culture media were supplemented (complete medium) with 10% fetal bovine serum and 1% penicillin/streptomycin (Invitrogen, Eggenstein, Germany). […] To maintain the resistance phenotype of the resistant carcinoma cell lines such as MDA-MB-231/BCRP and HCT116 p53^−/−, and U87MG.ΔEGFR cells, the complete DMEM medium containing geneticin at 800 ng/ml and 400 µg/ml, respectively were used [41, 42].
as §3

[3] = test system: MDA-MB-231-pcDNA cells; test: Resazurin reduction assay (RRA), cytotoxicity; assay type: cell-based; conditions: Homo sapiens, 72 h
From the text: as §2, §3

[4] = test system: HCT116 p53+/+ cells; test: Resazurin reduction assay (RRA), cytotoxicity; assay type: cell-based; conditions: Homo sapiens, HCT-116, 72 h
From the text: as §2, §3

[5] = test system: HCT116 p53−/− cells; test: Resazurin reduction assay (RRA), cytotoxicity; assay type: cell-based, human; conditions: for IC50: Homo sapiens, HCT-116, HCT116 p53−/−, 72 h; for Degree of resistance (D.R.): ratio of IC50 HCT116 p53−/− vs HCT116 p53+/+
Method: as §4, §3

[6] = test system: U87MG cells; test: Resazurin reduction assay (RRA), cytotoxicity; assay type: cell-based; conditions: Homo sapiens, U-87 MG, 72 h
From the text: as §2, §3

[7] = test system: U87MG.ΔEGFR cells; test: Resazurin reduction assay (RRA), cytotoxicity; assay type: cell-based, human; conditions: for IC50: Homo sapiens, U87MG.ΔEGFR, 72 h; for Degree of resistance (D.R.): ratio of IC50 U87.MGΔEGFR vs U87.MG
Method: as §4, §3

[8] = test system: HepG2 cells; test: Resazurin reduction assay (RRA), cytotoxicity; assay type: cell-based; conditions: Homo sapiens, HepG2, 72 h
From the text: as §2, §3

[9] = test system: AML12 hepatocytes; test: Resazurin reduction assay (RRA), cytotoxicity on normal hepatocytes; assay type: cell-based; conditions: for IC50: Mus musculus, AML12 normal hepatocytes, 72 h; for Selectivity index (S.I.): ratio of IC50 in AML12 vs IC50 in HepG2 cells
Method: as §4, §3

[10] = test system: MDA-MB-231-BCRP cells; test: Resazurin reduction assay (RRA), cytotoxicity; conditions: for IC50: Homo sapiens, MDA-MB-231/BCRP, 72 h; for Degree of resistance (D.R.): ratio of IC50 MDA-MB-231-BCRP vs MDA-MB-231-pcDNA
Method: as §4, §3

[11] = test system: CCRF-CEM cells; test: Reactive oxygen species (ROS), H2DCFH-DA staining, flow cytometry; assay type: cell-based, human; conditions: 50 µM, 24 h
Method: (§1) The modification of the MMP as well as the ROS levels after the application of BAL, and flavonolignan 2 at ¼ IC50, ½ IC50, IC50, and 2 × IC50 to CCRF-CEM cells (1 × 10^6) was performed by flow cytometry. DMSO was used as solvent control while valinomycin served as a positive control. The cells were incubated for 24 h and further stained for 30 min with JC-1 [45] and measured (1 × 10^4 cells) in an LSR-Fortessa FACS analyzer (Becton–Dickinson). For ROS determination, CCEF-CEM cells were similarly treated BAL, the flavonolignan 2, hydrogen peroxide (H2O2; positive control), DMSO (solvent control) as in the MMP analysis, then incubated for 24 h. They were further stained with H2DCFH-DA and measured (1 × 10^4 cells) in an LSR-Fortessa FACS analyzer.

[12] = test system: CCRF-CEM cells; test: Mitochondrial membrane potential (MMP), JC-1 staining, flow cytometry; assay type: cell-based, human; conditions: 10 µM, 24 h
Method: as §1

Row | SMILES | IC50 [1] | IC50 [2] | Degree of resistance (D.R.) [2] | IC50 [3] | IC50 [4] | IC50 [5] | Degree of resistance (D.R.) [5] | IC50 [6] | IC50 [7] | Degree of resistance (D.R.) [7] | IC50 [8] | IC50 [9] | Selectivity index (S.I.) [9] | IC50 [10] | melting point | further results
1 | CC(C)=CC(=O)c1c[nH]c2ccccc12 [Compound 1, 3, (3-(3-methyl-1-oxo-2-butenyl))1H indole] | 19.1 ± 1.56 µM | 32 ± 2.05 µM | 1.68 | 13.4 ± 0.93 µM | 23.9 ± 2.32 µM | 36.4 ± 3.04 µM | 1.53 | 24.2 ± 1.16 µM | 36.3 ± 3.01 µM | 1.50 | 39.9 ± 2.84 µM | > 100 µM | > 2.50 | 47.5 ± 2.75 µM |  | Degree of resistance (D.R.) [10]: 3.54
2 | C[C@@H](O)C1CCC2C3CC=C4C[C@@H](O[C@@H]5OC[C@H](O)[C@H](O)[C@H]5O)CC[C@]4(C)C3CC[C@@]21C (stereo partly drawn) [Compound 3, (20R)-O-(3)-α-L-arabinopyranosyl-pregn-5-en-3β,20-diol] | 28.4 ± 1.76 µM | 73.9 ± 5.32 µM | 2.60 | > 100 µM | > 100 µM | 50.5 ± 3.81 µM | < 0.50 | > 100 µM | > 100 µM |  | 85.2 ± 5.7 µM | > 100 µM | > 1.17 | > 100 µM | 258 to 260 °C | 
3 | C[C@@H](O)C1CCC2C3CC=C4C[C@@H](O[C@@H]5OC[C@H](O)[C@H](O)[C@H]5O[C@@H]5O[C@H](CO)[C@@H](O)[C@H](O)[C@H]5O)CC[C@]4(C)C3CC[C@@]21C (stereo partly drawn) [Compound 4, (20R)-O-(3)-β-D-glucopyranosyl(1 → 2)-α-L-arabinopyranosyl-pregn-5-en-3β,20-diol] | 32 ± 2.16 µM | > 100 µM | > 3.13 | > 100 µM | > 100 µM | 32.2 ± 2.37 µM | < 0.32 | 28.3 ± 2.08 µM | 28.3 ± 1.66 µM | 1.00 | 31.2 ± 2.11 µM | > 100 µM | > 3.21 | > 100 µM | 258 to 260 °C | 
4 | O=c1ccc2nccc3c4ccccc4n1c23 [Compound 5, canthin-6-one] | 44.2 ± 3.52 µM | > 100 µM | > 2.26 | > 100 µM | 24.7 ± 2.16 µM | 21 ± 1.72 µM | 0.85 | 19.6 ± 1.55 µM | 21.1 ± 1.49 µM | 1.08 | 26.1 ± 1.63 µM | > 100 µM | > 3.83 | > 100 µM |  | 
5 | CC(C)(O)[C@@H](O)Cc1cn([C@@H]2O[C@H](CO)[C@@H](O)[C@H](O)[C@H]2O)c2ccccc12 [Compound 7, 3-(2’,3’-dihydroxy-3’-méthylbutyl)-1N-β-glucopyranosylindole] | 20.4 ± 0.94 µM | > 100 µM | > 4.91 | > 100 µM | > 100 µM | > 100 µM |  | > 100 µM | > 100 µM |  | > 100 µM | > 100 µM |  | > 100 µM | 209 to 211 °C | 
6 | OO [Compound H2O2, hydrogen peroxide, reference compound] |  |  |  |  |  |  |  |  |  |  |  |  |  |  |  | ROS levels in treated cells [11]: 94.30%
7 | COc1cccc2c1C(=O)c1c(O)c3c(c(O)c1C2=O)C[C@@](O)(C(=O)CO)C[C@@H]3O[C@H]1C[C@H](N)[C@H](O)[C@H](C)O1 [Doxorubicin, reference compound] | 0.02 µM |  | 6,683.00 |  |  |  | 3.73 |  |  | 3.79 |  |  |  | 0.79 ± 0.08 µg/mL |  | IC50 ([1]; Table 2): 0.02 µg/mL; IC50 ([2]; Table 2): 123 ± 10.9 µg/mL; IC50 ([3]; Table 2): 0.13 ± 0.01 µg/mL; IC50 ([5]; Table 2): 1.78 ± 0.08 µg/mL; IC50 ([6]; Table 2): 0.26 ± 0.03 µg/mL; IC50 ([7]; Table 2): 0.98 ± 0.07 µg/mL; IC50 ([8]; Table 2): 4.56 ± 0.48 µg/mL; IC50 ([9]; Table 2): > 50 µg/mL; Degree of resistance (D.R.) [10]: 6.14
8 | CC(C)[C@@H]1NC(=O)[C@H](C)OC(=O)[C@@H](C(C)C)NC(=O)[C@@H](C(C)C)OC(=O)[C@H](C(C)C)NC(=O)[C@H](C)OC(=O)[C@@H](C(C)C)NC(=O)[C@@H](C(C)C)OC(=O)[C@H](C(C)C)NC(=O)[C@H](C)OC(=O)[C@@H](C(C)C)NC(=O)[C@@H](C(C)C)OC1=O [valinomycin, reference compound] |  |  |  |  |  |  |  |  |  |  |  |  |  |  |  | cells with MMP disrupted [12]: 16.8%; cells with MMP loosed [12]: 44.5%; healthy cells (intact MMP) [12]: 38.8%
